Some test systems named below: BT-549 breast; MDA-N; MCF7 breast; SNB-78 CNS; RXF-631 renal; LXFL 529 NSCLC; HOP-18 NSCLC; M19-MEL melanoma; DMS 273 small cell lung.
What all share (experiment): NCI-60 cell line screen, 48 h

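Growth conditions: 96-well plates. Treatment: test compound, 48 hours, 5 concentrations. Analysis: linear interpolation between bracketing concentrations; unreached endpoints set to highest concentration. At the GI50, growth is halved. TGI is the concentration that stops growth completely.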

As for `Cc1[nH]c2ccccc2c1-c1cc(-c2cc(-c3c(C)[nH]c4ccccc34)nc(N)n2)nc(N)n1`, the TGI in the test with BT-549 breast, in the test with MDA-N and in the test on MCF7 breast was more than 100 µM in each case.

In the case of `CC1=C(C(=O)Nc2cc(=O)n(C)c(=O)n2C)C(c2ccc([N+](=O)[O-])cc2)C(C(=O)Nc2cc(=O)n(C)c(=O)n2C)=C(C)N1`, the TGI with SNB-78 CNS, in the test with RXF-631 renal, with LXFL 529 NSCLC, in the test on HOP-18 NSCLC and in the test with M19-MEL melanoma was more than 100 µM each time.

Consider `COc1cc(O)c2c(c1)C(=O)C=C(Cl)C2=O`, for which the TGI with SNB-78 CNS, in the test on RXF-631 renal, with LXFL 529 NSCLC, with DMS 273 small cell lung, in the test with HOP-18 NSCLC and with M19-MEL melanoma was more than 100 µM in each case.

For `CCOC(=O)C(=O)Nc1ccc(Cl)cc1C`, the TGI in the test with SNB-78 CNS, in the test with LXFL 529 NSCLC, with DMS 273 small cell lung, in the test on HOP-18 NSCLC and in the test on M19-MEL melanoma was more than 100 µM in each case.

`NCCN.NCCN.O=C[O-].O=C[O-].[Co+3].[O-][Cl+3]([O-])([O-])[O-]`: the GI50 in the test on SNB-78 CNS, in the test on LXFL 529 NSCLC, in the test with HOP-18 NSCLC and with M19-MEL melanoma was more than 100 µM in each case. Further, the TGI in the test with SNB-78 CNS, in the test with LXFL 529 NSCLC, in the test on HOP-18 NSCLC and with M19-MEL melanoma was more than 100 µM each time.

Take `Cc1ccccc1C(=O)Oc1ccc(O)cc1`: the TGI in the test with SNB-78 CNS, in the test with RXF-631 renal, with DMS 273 small cell lung, with HOP-18 NSCLC and in the test with M19-MEL melanoma was more than 100 µM throughout.

Consider `O=C(Cc1nc2ccccc2s1)C(=O)Nc1cccc(Cl)c1`, for which the TGI with SNB-78 CNS, with RXF-631 renal, in the test with LXFL 529 NSCLC, in the test with DMS 273 small cell lung and in the test on M19-MEL melanoma was more than 100 µM in each case.

Regarding `COC(=O)CCC(=O)Nc1cc(Cl)ccc1Cl`, the TGI in the test on SNB-78 CNS, with LXFL 529 NSCLC, in the test with HOP-18 NSCLC and with M19-MEL melanoma was more than 100 µM in each case.

Take `CC(C)C1CC2C(=O)N(c3ccccc3)C(=O)C2c2[nH]c3ccccc3c21` (configuration not stated): the TGI with SNB-78 CNS is 77.3 µM; with DMS 273 small cell lung, 29.2 µM; in the test with M19-MEL melanoma, more than 100 µM.

With `COc1ccc(C[C@@H]2NC[C@@H](O)[C@@H]2OC(C)=O)cc1`, the TGI was 0.145 µM in the test with BT-549 breast; 24.1 µM in the test on LXFL 529 NSCLC; more than 100 µM in the test on DMS 273 small cell lung; 6.35 µM with HOP-18 NSCLC; more than 100 µM in the test with M19-MEL melanoma.

For the molecule `COc1ccc(C(=O)C(c2ccc(OC)cc2)C2OC(=O)C(Cl)=C2Cl)cc1` (configuration not stated), the TGI in the test with SNB-78 CNS, with LXFL 529 NSCLC, in the test on HOP-18 NSCLC and in the test with M19-MEL melanoma was more than 100 µM throughout.

As for `COc1ccc(NC(=O)CC/C(CC(=O)C(C)(C)C)=N\NC(=O)C(N)=O)cc1`, the TGI in the test on LXFL 529 NSCLC and in the test with M19-MEL melanoma was more than 100 µM throughout.

`CN(CC#N)C1CCCC[C@H]1O` (some centres not stated): the TGI in the test with SNB-78 CNS, with LXFL 529 NSCLC, in the test on DMS 273 small cell lung and in the test on HOP-18 NSCLC was more than 100 µM throughout.

With `CN(/N=C/c1cccc2cccnc12)c1ccc([N+](=O)[O-])cc1`, the TGI with SNB-78 CNS, with LXFL 529 NSCLC, with DMS 273 small cell lung, in the test with HOP-18 NSCLC and in the test on M19-MEL melanoma was more than 100 µM throughout.

Turning to `CCN1C2=NCCN2S(=O)(=O)c2ccccc21`, the TGI in the test on BT-549 breast, in the test with MDA-N and in the test with MCF7 breast was more than 100 µM throughout.

Consider `CC(C)CC(=O)Nc1n[nH]c2c1CN(C(=O)C1CCN(C)CC1)C2(C)C`, for which the GI50 with BT-549 breast is 3.86 µM; in the test with MCF7 breast, 0.191 µM. Besides, the TGI in the test with BT-549 breast and in the test on MCF7 breast was more than 10 µM in each case.

With `Cc1ccc(C2NC(=O)c3ccccc3N2)s1` (configuration not stated), the TGI with SNB-78 CNS, in the test with LXFL 529 NSCLC, with DMS 273 small cell lung and in the test on M19-MEL melanoma was more than 100 µM each time.

As to `COC1=CC(=O)C(OC)=C(OC)C1=O`, the GI50 is 16.7 µM with BT-549 breast and 21.5 µM in the test with MCF7 breast. Also, the TGI came to 30.4 µM with BT-549 breast and 53.1 µM in the test on MCF7 breast.

For `C#CCN(N=O)C(=O)NC(CCCNC(=O)OCc1ccccc1)C(=O)OCc1ccccc1` (configuration not stated), the TGI in the test with SNB-78 CNS, in the test with LXFL 529 NSCLC, in the test on DMS 273 small cell lung and with M19-MEL melanoma was more than 100 µM each time.

As to `CC(=O)OC1CC2Oc3ccc(C)cc3C(C)(O2)C1=O` (configuration not stated), the TGI in the test with DMS 273 small cell lung, in the test with HOP-18 NSCLC and with M19-MEL melanoma was more than 100 µM in each case.

Consider `CC(=O)[O-].[Mn+3].[O-]c1ccccc1C=NCCN=Cc1ccccc1[O-]`, for which the GI50 is 50.7 µM with LXFL 529 NSCLC, more than 100 µM in the test with DMS 273 small cell lung, more than 100 µM in the test with HOP-18 NSCLC and 44.2 µM with M19-MEL melanoma. Also, the TGI in the test with LXFL 529 NSCLC, with DMS 273 small cell lung, in the test with HOP-18 NSCLC and with M19-MEL melanoma was more than 100 µM each time.

For `COc1ccc(N/N=C(\CCN(C)C)c2ccccc2)cc1`, the TGI in the test on SNB-78 CNS is 26.9 µM; in the test on LXFL 529 NSCLC, 3.8 µM; in the test on DMS 273 small cell lung, 11.1 µM; with HOP-18 NSCLC, more than 100 µM; in the test on M19-MEL melanoma, 13.5 µM.

For `CN(C)CCNC(=O)c1cccc2c(Nc3ccc(S(N)(=O)=O)cc3)c3ccccc3nc12`, the TGI with LXFL 529 NSCLC came out at 2.23 µM; with DMS 273 small cell lung it was 3.71 µM; in the test on HOP-18 NSCLC it was 9.2 µM.
